≈ marks a conversion by molar mass, not a printed value. Where two headings read alike, the source gives them in different places.
Columns and labels:
[1] = tested on: Candida albicans; test: Plate test procedure for measurement of inhibition (antifungal activity); type: cell-based
Description: The following represents the typical procedure used. Compound to be tested was placed on sterile dried 1/4" plate disks, and allowed to dry. Agar plates were seeded with fungi and allowed to solidify. The impregnated disks were placed on the seeded Agar surface and incubated for the time required for the particular culture. Results are expressed in MIC (μg/ml) to inhibit growth.

[2] = tested on: thymocyte proliferation; test: Comitogen-induced thymocyte proliferation procedure (LAF); type: cell-based, BALB/c mice; details: for LAF (ratio): ratio relative to rapamycin (rapamycin 1.0), 72 h culture, PHA and IL-1
Description: (§1) Immunosuppressive activity was evaluated in an in vitro standard pharmacological test procedure to measure lymphocyte proliferation (LAF) and in two in vivo standard pharmacological test procedures. The first in vivo procedure was a popliteal lymph node (PLN) test procedure which measured the effect of compounds of this invention on a mixed lymphocyte reaction and the second in vivo procedure evaluated the survival time of a pinch skin graft.
Briefly, cells from the thymus of normal BALB/c mice are cultured for 72 hours with PHA and IL-1 and pulsed with tritiated thymidine during the last six hours. […] Cells are harvested and incorporated; radioactivity is determined. Inhibition of lymphoproliferation is assessed in percent change in counts per minute from non-drug treated controls. The results are expressed by the following ratio, or as the percent inhibition of lymphoproliferation of 1 μM. [formula]

[3] = tested on: pinch skin graft; test: Survival time of pinch skin graft; type: in vivo, male DBA/2 donors transplanted to male BALB/c recipients; details: intraperitoneal; mean ± S.D.
Description: as §1
The second in vivo test procedure is designed to determine the survival time of pinch skin graft from male DBA/2 donors transplanted to male BALB/c recipients. The method is adapted from Billingham R. E. and Medawar P. B., J. Exp. Biol. 28:385-402, (1951). Briefly, a pinch skin graft from the donor is grafted on the dorsum of the recipient as a homograft, and an autograft is used as control in the same region. […] Untreated recipients serve as rejection control. The graft is monitored daily and observations are recorded until the graft becomes dry and forms a blackened scab. This is considered as the rejection day. The mean graft survival time (number of days±S.D.) of the drug treatment group is compared with the control group.

[4] = tested on: Candida albicans; details: particularly against Candida albicans, both in vitro and in vivo; cited from earlier work
[5] = tested on: experimental allergic encephalomyelitis; details: model for multiple sclerosis; cited from earlier work
[6] = tested on: mixed lymphocyte reaction; test: Popliteal lymph node (PLN) test procedure (mixed lymphocyte reaction in vivo); design: species or system C3H mice (recipient), BALB/c donors; details: ratio relative to rapamycin (rapamycin 1.0); drug daily p.o. Day 0 to Day 4
Description: as §1
A mixed lymphocyte reaction (MLR) occurs when lymphoid cells from genetically distinct animals are combined in tissue culture. Each stimulates the other to undergo blast transformation which results in increased DNA synthesis that can be quantified by the incorporation of tritiated thymidine. Since stimulating a MLR is a function of disparity at Major Histocompatibility antigens, as in vivo popliteal lymph node (PLN) test procedure closely correlates to host vs. graft disease. Briefly, irradiated spleen cells from BALB/c donors are injected into the right hind foot pad of recipient C3H mice. The drug is given daily, p.o. from Day 0 to Day 4. On Day 3 and Day 4, tritiated thymidine is given i.p., b.i.d.. On Day 5, the hind popliteal lymph nodes are removed and dissolved, and radioactivity counted. […] Percent suppression is calculated using the non-drug treated animals as allogenic control. […]

[7] = alone or in combination with picibanil; cited from earlier work
[8] = ATCC38246, strain ATCC 38246, read-out: MIC
[9] = ATCC38247, strain ATCC 38247, read-out: MIC
[10] = ATCC38248, strain ATCC 38248, read-out: MIC

MIC ([1]; ATCC10231, strain ATCC 10231, read-out: MIC) [µg/mL] | Compound | MIC ([1]; ATCC10231) [µg/mL] | MIC [1, 8] [µg/mL] | MIC [1, 9] [µg/mL] | MIC [1, 10] [µg/mL] | MIC ([1]; strain 3669, read-out: MIC) [µg/mL] | suppression of T-cell proliferation (LAF), in words [2] | LAF (ratio) [2] | Skin graft survival time (days + SD) [3] [days] | antifungal activity [4] | effectiveness in experimental allergic encephalomyelitis model [5] | PLN (ratio) [6] | antitumor activity [7]
 | CCOC(=O)CO[C@@H]1CC[C@@H](C[C@@H](C)[C@@H]2CC(=O)[C@H](C)/C=C(\C)[C@@H](O)[C@@H](OC)C(=O)[C@H](C)C[C@H](C)/C=C/C=C/C=C(\C)[C@@H](OC)C[C@@H]3CC[C@@H](C)[C@@](O)(O3)C(=O)C(=O)N3CCCC[C@H]3C(=O)O2)C[C@H]1OC [Example 1, 42-Deoxy-42-(2-ethoxy-2-oxoethoxy)rapamycin] | 0.5 (≈ 0.5 µM) | 0.1 (≈ 0.1 µM) | 0.2 (≈ 0.2 µM) | 0.1 (≈ 0.1 µM) | 0.05 (≈ 0.05 µM) | suppressed T-cell proliferation | 0.46 | 7.5 ± 1.2 |  |  |  | 
 | CO[C@H]1C[C@@H]2CC[C@@H](C)[C@@](O)(O2)C(=O)C(=O)N2CCCC[C@H]2C(=O)O[C@H]([C@H](C)C[C@@H]2CC[C@@H](O)[C@H](OC)C2)CC(=O)[C@H](C)/C=C(\C)[C@@H](O)[C@@H](OC)C(=O)[C@H](C)C[C@H](C)/C=C/C=C/C=C/1C [Rapamycin, rapamycin] |  |  |  |  |  |  |  |  | found to have antifungal activity | effective in the experimental allergic encephalomyelitis model | 1.0 | shown to have antitumor activity
0.05 (≈ 0.0486 µM) | CO[C@H]1C[C@@H]2CC[C@@H](C)[C@@](O)(O2)C(=O)C(=O)N2CCCC[C@H]2C(=O)O[C@H]([C@H](C)C[C@@H]2CC[C@@H](OCC(=O)OC(C)(C)C)[C@H](OC)C2)CC(=O)[C@H](C)/C=C(\C)[C@@H](O)[C@@H](OC)C(=O)[C@H](C)C[C@H](C)/C=C/C=C/C=C/1C [Example 2, 42-Deoxy-42-[2-(1,1-dimethylethoxy)-2-oxoethoxy]rapamycin] |  | 0.2 (≈ 0.194 µM) | 0.05 (≈ 0.0486 µM) | 0.1 (≈ 0.0972 µM) | 0.2 (≈ 0.194 µM) | suppressed T-cell proliferation | 0.27 |  |  |  |  | 

Reference: patent US5233036A, “Rapamycin alkoxyesters” (American Home Products Corporation, priority 1992, dated 1993)
